Measured values as given in patent publication US8796324B2, “Substituted 2-acetamido-5-aryl-1,2,4-triazolones and use thereof” (Bayer Intellectual Property GmbH, priority 2009, dated 2014).
Counter-ions that a name gives are not always drawn.

Experiments:
human V1a receptor = target: T1, human V1a receptor (Homo sapiens, UniProt P37288); experiment: Cellular in vitro assay for determining the vasopressin receptor activity (aequorin luminescence); format: cell-based; details: CHO cell line transfected with the human V1a receptor; agonist [Arg8]-vasopressin; read-out: IC50 hV1a
T1 construct: expressed in transfected cells; host or cells: CHO K1 (constitutively expressing modified aequorin)
T1 sequence (P37288 whole entry): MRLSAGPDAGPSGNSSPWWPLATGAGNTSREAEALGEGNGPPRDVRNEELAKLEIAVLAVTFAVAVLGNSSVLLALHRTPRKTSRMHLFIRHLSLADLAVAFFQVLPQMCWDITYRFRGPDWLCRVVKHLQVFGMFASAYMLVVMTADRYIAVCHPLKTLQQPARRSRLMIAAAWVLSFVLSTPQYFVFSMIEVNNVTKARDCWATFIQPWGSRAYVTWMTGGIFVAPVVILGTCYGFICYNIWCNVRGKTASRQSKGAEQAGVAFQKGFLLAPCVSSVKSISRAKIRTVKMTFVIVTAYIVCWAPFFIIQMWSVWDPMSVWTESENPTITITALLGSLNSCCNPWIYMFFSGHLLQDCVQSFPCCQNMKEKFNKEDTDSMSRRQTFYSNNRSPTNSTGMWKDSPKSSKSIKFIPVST
Source text: (§1) B-1. Cellular In Vitro Assay for Determining the Vasopressin Receptor Activity
(§2) The identification of agonists and antagonists of the V1a and V2 vasopressin receptors from humans and rats and also the quantification of the activity of the substances described here took place using recombinant cell lines. These cells derive originally from a hamster ovary epithelial cell (Chinese Hamster Ovary, CHO K1, ATCC: American Type Culture Collection, Manassas, Va. 20108, USA). The test cell lines constitutively express a modified form of the calcium-sensitive photoprotein aequorin, which, after reconstitution with the cofactor coelenterazine, emits light when there are increases in the free calcium concentration (Rizzuto R., Simpson A. W., Brini M., Pozzan T.; Nature 358 (1992) 325-327). In addition, the cells are stably transfected with the human or rat V1a or V2 receptors. In the case of the Gs-coupling V2 receptors, the cells are stably transfected with a further gene, which codes for the promiscuous Gα16 protein (Amatruda T. T., Steele D. A., Slepak V. Z., Simon M. I., Proc. Nat. Acad. Sci. USA 88 (1991), 5587-5591), either independently or as a fusion gene. The resulting vasopressin receptor test cells react to stimulation of the recombinantly expressed vasopressin receptors by intracellular release of calcium ions, which can be quantified by the resulting aequorin luminescence using a suitable luminometer (Milligan G., Marshall F., Rees S., Trends in Pharmaco. Sci. 17 (1996) 235-237).
(§3) On the day before the assay, the cells are plated out in culture medium (DMEM, 10% FCS, 2 mM glutamine, 10 mM HEPES) in 384-well microtiter plates and kept in a cell incubator (96% humidity, 5% v/v carbon dioxide, 37° C.). On the day of the assay, the culture medium is replaced by a Tyrode solution (140 mM sodium chloride, 5 mM potassium chloride, 1 mM magnesium chloride, 2 mM calcium chloride, 20 mM glucose, 20 mM HEPES), which additionally contains the cofactor coelenterazine (50 μM), and the microtiter plate is then incubated for a further 3-4 hours. The test substances in various concentrations are placed for 10 to 20 minutes in the wells of the microtiter plate before the agonist [Arg8]-vasopressin is added, and the resulting light signal is measured immediately in the luminometer. The IC50 values are calculated using the GraphPad PRISM computer program (Version 3.02).
(§4) The table below lists representative IC50 values for the compounds of the invention on the cell line transfected with the human V1a or V2 receptor: […]

human V2 receptor = target: T2, human V2 receptor (Homo sapiens, UniProt P30518); experiment: as above; format: cell-based; details: CHO cell line transfected with the human V2 receptor (and Gα16); agonist [Arg8]-vasopressin; read-out: IC50 hV2
T2 construct: expressed in transfected cells; host or cells: CHO K1 (constitutively expressing modified aequorin; co-transfected with promiscuous G-alpha-16)
T2 sequence (P30518 whole entry): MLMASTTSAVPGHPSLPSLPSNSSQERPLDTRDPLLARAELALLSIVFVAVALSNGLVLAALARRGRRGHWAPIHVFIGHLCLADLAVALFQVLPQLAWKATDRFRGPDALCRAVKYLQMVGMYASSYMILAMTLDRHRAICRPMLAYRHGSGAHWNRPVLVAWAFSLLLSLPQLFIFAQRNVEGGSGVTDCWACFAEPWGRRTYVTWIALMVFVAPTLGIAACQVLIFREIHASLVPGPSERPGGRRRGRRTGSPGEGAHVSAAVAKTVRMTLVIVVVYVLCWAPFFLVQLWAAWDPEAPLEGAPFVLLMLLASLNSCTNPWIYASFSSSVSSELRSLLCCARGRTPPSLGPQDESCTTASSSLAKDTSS
Source text: as §1, §2, §3, §4

| SMILES | IC50 (human V1a receptor) | IC50 (human V2 receptor) |
| --- | --- | --- |
| CC(=O)NCC(NC(=O)Cn1nc(-c2ccc(Cl)cc2)n(C[C@H](O)C(F)(F)F)c1=O)c1cccc(C(F)(F)F)c1 (mixture of isomers) [Example 20, N-{2-(Acetylamino)-1-[3-(trifluoromethyl)phenyl]ethyl}-2-{3-(4-chlorophenyl)-5-oxo-4-[(2S)-3,3,3-trifluoro-2-hydroxypropyl]-4,5-dihydro-1H-1,2,4-triazol-1-yl}acetamide (diastereomer mixture)] | 1.5 nM | 6.3 nM |
| O=C(Cn1nc(-c2ccc(Cl)cc2)n(C[C@H](O)C(F)(F)F)c1=O)NC(c1cccc(C(F)(F)F)c1)C(O)C(F)(F)F (mixture of isomers) [Example 78, 2-{3-(4-Chlorophenyl)-5-oxo-4-[(2S)-3,3,3-trifluoro-2-hydroxypropyl]-4,5-dihydro-1H-1,2,4-triazol-1-yl}-N-{3,3,3-trifluoro-2-hydroxy-1-[3-(trifluoromethyl)phenyl]propyl}acetamide] | 21.1 nM | 30.4 nM |
| COc1cccc(C(CCO)NC(=O)Cn2nc(-c3ccc(Cl)cc3)n(C3CC3)c2=O)c1 (racemic) [Example 89, 2-[3-(4-Chlorophenyl)-4-cyclopropyl-5-oxo-4,5-dihydro-1H-1,2,4-triazol-1-yl]-N-[3-hydroxy-1-(3-methoxyphenyl)propyl]acetamide] | 2880 nM | 290 nM |
| O=C(Cn1nc(-c2ccc(Cl)cc2)n(C2CC2)c1=O)NC(CO)c1cccc(C(F)(F)F)c1 (racemic) [Example 96, 2-[3-(4-Chlorophenyl)-4-cyclopropyl-5-oxo-4,5-dihydro-1H-1,2,4-triazol-1-yl]-N-{2-hydroxy-1-[3-(trifluoromethyl)phenyl]ethyl}acetamide] | 71.3 nM | 40.2 nM |
| NC(=O)OCC(NC(=O)Cn1nc(-c2ccc(Cl)cc2)n(C[C@H](O)C(F)(F)F)c1=O)c1cccc(C(F)(F)F)c1 (single isomer, unassigned) [Example 48] | 5.2 nM | 4.4 nM |
| NC(=O)OCC(NC(=O)Cn1nc(-c2ccc(Cl)cc2)n(C[C@H](O)C(F)(F)F)c1=O)c1ccccc1C(F)(F)F (single isomer, unassigned) [Example 51] | 1 nM | 8.5 nM |
| NC(=O)NCC(NC(=O)Cn1nc(-c2ccc(Cl)cc2)n(C[C@H](O)C(F)(F)F)c1=O)c1cccc(C(F)(F)F)c1 (single isomer, unassigned) [Example 57] | 2.9 nM | 2.2 nM |
| NC(=O)NCC(NC(=O)Cn1nc(-c2ccc(Cl)cc2)n(CCC(F)(F)F)c1=O)c1cccc(Cl)c1Cl (single isomer, unassigned) [Example 121, N-[2-(Carbamoylamino)-1-(2,3-dichlorophenyl)ethyl]-2-[3-(4-chlorophenyl)-5-oxo-4-(3,3,3-trifluoropropyl)-4,5-dihydro-1H-1,2,4-triazol-1-yl]acetamide] | 0.9 nM | 1.4 nM |
| CS(=O)(=O)CC(NC(=O)Cn1nc(-c2ccc(Cl)cc2)n(C[C@H](O)C(F)(F)F)c1=O)c1ccccc1C(F)(F)F (single isomer, unassigned) [Example 136] | 3.9 nM | 24 nM |
| CN(C)S(=O)(=O)CC(NC(=O)Cn1nc(-c2ccc(Cl)cc2)n(C[C@H](O)C(F)(F)F)c1=O)c1cccc(C(F)(F)F)c1 (single isomer, unassigned) [Example 141] | 36 nM | 4.8 nM |
| NC(=O)OCC(NC(=O)Cn1nc(-c2ccc(Cl)cc2)n(CCC(F)(F)F)c1=O)c1ccccc1C(F)(F)F (single isomer, unassigned) [Example 144, 2-({[3-(4-Chlorophenyl)-5-oxo-4-(3,3,3-trifluoropropyl)-4,5-dihydro-1H-1,2,4-triazol-1-yl]acetyl}amino)-2-[2-(trifluoromethyl)phenyl]ethyl carbamate] | 1.4 nM | 13.9 nM |

More lines, in order of falling IC50 (human V1a receptor), values ahead:

| IC50 (human V1a receptor) | IC50 (human V2 receptor) | SMILES |
| --- | --- | --- |
| 16.8 nM | 16.8 nM | NC(=O)OCC(NC(=O)Cn1nc(-c2ccc(Cl)cc2)n(/C=C/C(F)(F)F)c1=O)c1cccc(C(F)(F)F)c1 (single isomer, unassigned) [Example 65, 2-[({3-(4-Chlorophenyl)-5-oxo-4-[(1E)-3,3,3-trifluoroprop-1-en-1-yl]-4,5-dihydro-1H-1,2,4-triazol-1-yl}acetyl)amino]-2-[3-(trifluoromethyl)phenyl]ethyl carbamate] |
| 10.8 nM | 1.6 nM | NC(=O)OCCC(NC(=O)Cn1nc(-c2ccc(Cl)cc2)n(C[C@H](O)C(F)(F)F)c1=O)c1cccc(Cl)c1Cl (single isomer, unassigned) [Example 73] |
| 10.4 nM | 6.3 nM | NCC(NC(=O)Cn1nc(-c2ccc(Cl)cc2)n(C[C@H](O)C(F)(F)F)c1=O)c1cccc(C(F)(F)F)c1 (mixture of isomers) [Example 10, N-{2-Amino-1-[3-(trifluoromethyl)phenyl]ethyl}-2-{3-(4-chlorophenyl)-5-oxo-4-[(2S)-3,3,3-trifluoro-2-hydroxypropyl]-4,5-dihydro-1H-1,2,4-triazol-1-yl}acetamide hydrochloride (diastereomer mixture)] |
| 3.8 nM | 5.8 nM | Cc1ccccc1C(CCO)NC(=O)Cn1nc(-c2ccc(Cl)cc2)n(C[C@H](O)C(F)(F)F)c1=O (single isomer, unassigned) [Example 87] |
| 3.6 nM | 1 nM | NC(=O)NCC(NC(=O)Cn1nc(-c2ccc(Cl)cc2)n(C[C@H](O)C(F)(F)F)c1=O)c1cccc(Cl)c1Cl (single isomer, unassigned) [Example 62] |
| 3.5 nM | 7.6 nM | COC(=O)NCC(NC(=O)Cn1nc(-c2ccc(Cl)cc2)n(CCC(F)(F)F)c1=O)c1cccc(Cl)c1Cl (single isomer, unassigned) [Example 115, Methyl [2-({[3-(4-chlorophenyl)-5-oxo-4-(3,3,3-trifluoropropyl)-4,5-dihydro-1H-1,2,4-triazol-1-yl]acetyl}amino)-2-(2,3-dichlorophenyl)ethyl]carbamate] |
| 2.4 nM | 6 nM | NC(=O)OCC(NC(=O)Cn1nc(-c2ccc(Cl)cc2)n(CCC(F)(F)F)c1=O)c1cccc(C(F)(F)F)c1 (single isomer, unassigned) [Example 112, 2-({[3-(4-Chlorophenyl)-5-oxo-4-(3,3,3-trifluoropropyl)-4,5-dihydro-1H-1,2,4-triazol-1-yl]acetyl}amino)-2-[3-(trifluoromethyl)phenyl]ethyl carbamate] |
| 2.2 nM | 7.1 nM | O=C(Cn1nc(-c2ccc(Cl)cc2)n(C[C@H](O)C(F)(F)F)c1=O)NC(CN1CCNC1=O)c1cccc(C(F)(F)F)c1 (single isomer, unassigned) [Example 152] |
| 2 nM | 15 nM | O=C(Cn1nc(-c2ccc(Cl)cc2)n(C[C@H](O)C(F)(F)F)c1=O)NC(CN1CCOC1=O)c1cccc(C(F)(F)F)c1 (single isomer, unassigned) [Example 149] |
| 1.9 nM | 10 nM | CSCC(NC(=O)Cn1nc(-c2ccc(Cl)cc2)n(C[C@H](O)C(F)(F)F)c1=O)c1ccccc1C(F)(F)F (single isomer, unassigned) [Example 156] |
| 1.8 nM | 1.8 nM | CS(=O)(=O)NCC(NC(=O)Cn1nc(-c2ccc(Cl)cc2)n(C[C@H](O)C(F)(F)F)c1=O)c1ccccc1Cl (single isomer, unassigned) [Example 126] |
| 0.5 nM | 4.5 nM | NC(=O)NCC(NC(=O)Cn1nc(-c2ccc(Cl)cc2)n(C[C@H](O)C(F)(F)F)c1=O)c1ccccc1C(F)(F)F (single isomer, unassigned) [Example 60] |
